Counter-ions that a name gives are not always drawn.
Assay: collision cross section in nitrogen (drift tube, single-field); higher = larger gas-phase ion size
[1] = ion type: [M+Na], ion source: ESI, ion mode: Positive
[2] = ion type: [M-H], ion source: ESI, ion mode: Negative
[3] = ion type: [M+H], ion source: APCI, ion mode: Positive
[4] = ion type: [M+H], ion source: ESI, ion mode: Positive
[5] = ion type: [M+], ion source: APCI, ion mode: Positive
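Also: chemical standards at 10 µM analysed by drift tube IMS-QTOF MS in about 3.95 torr nitrogen, mean of duplicate injections differing ≤1%, mass error below 10 ppm.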

| SMILES | collision cross section in nitrogen [1] [Å²] | collision cross section in nitrogen [2] [Å²] | collision cross section in nitrogen [3] [Å²] | collision cross section in nitrogen [4] [Å²] | collision cross section in nitrogen [5] [Å²] |
| --- | --- | --- | --- | --- | --- |
| COc1nn(CSP(=S)(OC)OC)c(=O)s1 [Methidathion] | 163.4 | – | – | – | – |
| O=C(O)C1=NN(c2ccc(S(=O)(=O)O)cc2)C(=O)C1 | – | 162.5 | – | – | – |
| CCOC(=O)OC1=C(c2cc(C)ccc2C)C(=O)N[C@]12CC[C@@H](OC)CC2 [Spirotetramat] | 202.3 | – | 190.2 | 189.3 | – |
| O=C(Nc1ccc(F)cc1F)c1cccnc1Oc1cccc(C(F)(F)F)c1 [Diflufenican] | – | 180.6 | 184.7 | 189.1 | – |
| Cc1ccc(Nc2ccc(O)c3c2C(=O)c2ccccc2C3=O)cc1 [D&C Violet 2] | – | – | 176.9 | 176.7 | 174 |
| CNc1cnn(-c2cccc(C(F)(F)F)c2)c(=O)c1Cl [Norflurazon] | 171.9 | 160.9 | 162.7 | 162.4 | – |
| CCCCC(CC)COC(=O)/C=C\C(=O)OCC(CC)CCCC (centres undefined) [Bis(2-ethylhexyl) maleate] | 207.2 | – | – | – | – |
| COP(=O)(OC)O/C(=C\Cl)c1cc(Cl)c(Cl)cc1Cl [Z-Tetrachlorvinphos] | 177.9 | – | – | – | – |
| CCCCc1nc2cccnc2n1Cc1ccc(-c2ccccc2-c2nnn[nH]2)cc1 | 205.8 | 204.3 | 197 | 196.8 | – |
| CC(C)NCC(O)c1ccc(O)c(O)c1 (centres undefined) [Isoproterenol hydrochloride] | – | 151.9 | – | 151 | – |
| CC(C)Nc1nc(N)nc(Cl)n1 [Desethylatrazine] | – | – | 139.3 | 139.4 | – |
| COc1cc(OC)nc(Oc2cccc(Oc3nc(OC)cc(OC)n3)c2C(=O)O)n1 [Bispyribac-sodium] | 198.6 | 187.4 | 198.3 | 198.5 | – |
| Cc1cc(C)nc(Nc2ccccc2)n1 [Pyrimethanil] | – | – | 143.4 | 143.8 | – |
| Cc1occc1C(=O)Nc1ccc(C(=O)N2CCC(F)(F)/C(=C\C(=O)N3CCC(N4CCCCC4)CC3)c3ccccc32)cc1 [YM 218] | 262.5 | – | 240.1 | 239 | – |
| COS(=O)(=O)c1ccccc1 [Methyl benzenesulphonate] | – | 135 | – | – | – |
| CC(=O)Nc1ccc2c(c1)Cc1cc(NC(C)=O)ccc1-2 [2,7-Acetylaminofluorene] | 180.9 | 174.7 | 176.3 | 175.7 | 167.4 |
| Nc1cc(C(=O)O)ccc1Cl [3-Amino-4-chlorobenzoic acid] | – | 135.4 | – | – | – |
| CCOC(=O)[C@H](C)Oc1ccc(Oc2nc3ccc(Cl)cc3o2)cc1 [Fenoxaprop-(2S)-ethyl] | 189 | – | – | 189.8 | – |
| O=C(O)C1C(C(=O)O)C2(Cl)C(Cl)=C(Cl)C1(Cl)C2(Cl)Cl (centres undefined) [Chlorendic acid] | – | 159 | – | – | – |
| CC(=O)O[C@]1(C(C)=O)CC[C@H]2[C@@H]3C=C(Cl)C4=CC(=O)[C@@H]5C[C@@H]5[C@]4(C)[C@H]3CC[C@@]21C [Cyproterone acetate] | – | 201.5 | – | 201.9 | – |
| COc1cc(O)c(C(=O)c2ccccc2)cc1S(=O)(=O)O [Sulisobenzone] | – | 168.1 | – | – | – |

| SMILES | collision cross section in nitrogen [1] [Å²] | collision cross section in nitrogen [2] [Å²] | collision cross section in nitrogen [3] [Å²] | collision cross section in nitrogen [4] [Å²] | collision cross section in nitrogen [5] [Å²] |
| --- | --- | --- | --- | --- | --- |
| CCCCOCCOC(=O)COc1nc(Cl)c(Cl)cc1Cl [Triclopyr 2-butoxyethyl ester] | 176.3 | – | – | – | – |
| CC(CCOC(=O)c1ccccc1C(=O)OCC[C@@H](C)CC(C)(C)C)CC(C)(C)C (some centres undefined) [Bis(3,5,5-trimethylhexyl) phthalate] | 219.6 | – | – | – | – |
| CCC(C)c1cccc(C(C)CC)c1O (centres undefined) [2,6-Di(butan-2-yl)phenol] | – | 151.4 | – | – | – |
| CN(C)c1ccccc1 [N,N-Dimethylaniline] | 123.8 | – | – | – | – |
| O=C1OCCN1N=Cc1ccc([N+](=O)[O-])o1 [Furazolidone] | – | 150.8 | – | – | – |
| O=S(=O)(O)c1cc(S(=O)(=O)O)c2c(N=Nc3ccccc3)c(O)ccc2c1 [C.I. Acid Orange 10] | – | 192.5 | – | – | – |
| CCC(C)OC(=O)c1ccc(O)cc1 (centres undefined) [sec-Butylparaben] | – | 148.4 | – | – | – |
| CC[C@H]1OC(=O)[C@H](C)[C@@H](O[C@H]2C[C@@](C)(OC)[C@@H](O)[C@H](C)O2)[C@H](C)[C@@H](O[C@@H]2O[C@H](C)C[C@H](N(C)C)[C@H]2O)[C@](C)(O)C[C@@H](C)C(=O)[C@H](C)[C@@H](O)[C@]1(C)O [Erythromycin] | 262.9 | – | 258.5 | 257.1 | – |
| Cn1cc[nH]c1=S [Methimazole] | – | – | 116.9 | 118.1 | – |
| CC(=O)[C@H]1[C@H](C#N)C[C@H]2[C@@H]3CC=C4C[C@@H](O)CC[C@]4(C)[C@H]3CC[C@@]21C [Pregnenolone carbonitrile] | – | 189.5 | – | – | – |
| CCOC(=O)CCCCCCCCC(=O)OCC [Diethyl decanedioate] | 171.5 | – | – | – | – |
| CNC(=O)Nc1ccc(Cl)c(Cl)c1 [N-(3,4-Dichlorophenyl)-N'-methylurea] | – | 142.4 | – | – | – |
| CCCCCCCCCCCCc1ccccc1S(=O)(=O)O [Sodium dodecylbenzenesulfonate] | 167.5 | 186.3 | – | – | – |
| CCCc1ccc(O)cc1 [4-Propylphenol] | – | 134.5 | – | – | – |
| COc1cc(-c2ccc(N)c(OC)c2)ccc1N [C.I. Disperse Black 6 dihydrochloride] | – | – | 169.7 | 169.9 | 156.1 |
| O=C(O)CCCCCCCCC(=O)O [Decanedioic acid] | – | 144.6 | – | – | – |
| ClC(c1ccccc1)(c1ccccc1)c1ccccc1 [Trityl chloride] | – | – | 162.5 | – | – |
| CN(C)c1ccc(N=O)cc1 [N,N-Dimethyl-4-nitrosoaniline] | – | – | 128.7 | 128.4 | – |
| CC(=O)C(=NNc1ccc(-c2ccc(NN=C(C(C)=O)C(=O)Nc3ccc(C)cc3C)c(Cl)c2)cc1Cl)C(=O)Nc1ccc(C)cc1C [C.I. Pigment Yellow 13] | – | – | 238.9 | – | 238.3 |
| NC(=O)Cn1c(=O)cc(CCN2CCN(c3nccc4sccc34)CC2)c2ccc(F)cc21 [Trelanserin] | 207.9 | 203.8 | 200.1 | 202.8 | – |
| CCCCCCCCOC(=O)CCCCCCCCC(=O)OCCCCCCCC [Dioctyl sebacate] | 225.4 | – | – | 224.6 | – |

| SMILES | collision cross section in nitrogen [1] [Å²] | collision cross section in nitrogen [2] [Å²] | collision cross section in nitrogen [3] [Å²] | collision cross section in nitrogen [4] [Å²] | collision cross section in nitrogen [5] [Å²] |
| --- | --- | --- | --- | --- | --- |
| CC[C@H](C)C(=O)O[C@H]1C[C@H](O)C=C2C=C[C@H](C)[C@H](CC[C@@H](O)C[C@@H](O)CC(=O)O)[C@H]21 [Pravastatin sodium] | 206.7 | 201.5 | – | – | – |
| CNC(=O)Oc1cccc2c1OC(C)(C)O2 [Bendiocarb] | 157 | – | – | – | – |
| CCCCC/C=C\C/C=C\CCCCCCCC(=O)O [Linoleic acid] | – | 175.2 | – | – | – |
| C=CCc1cc(S(=O)(=O)c2ccc(O)c(CC=C)c2)ccc1O [4,4'-Sulfonylbis[2-(prop-2-en-1-yl)phenol]] | 197.2 | – | – | 182.5 | – |
| Clc1ccc(COC(Cn2ccnc2)c2ccc(Cl)cc2Cl)cc1 (centres undefined) [Econazole nitrate] | 193.2 | – | 185.8 | 185.7 | – |
| CCCCC(CC)C(=O)OCCOCCOCCOCCOC(=O)C(CC)CCCC (centres undefined) [Tetraethylene glycol di(2-ethylhexanoate)] | 214.4 | – | – | – | – |
| COc1ccc(OC)c(C(O)CNC(=O)CN)c1 (centres undefined) [Midodrine hydrochloride] | 164.3 | 159.5 | – | – | – |
| CC(C)(C)c1ccc(OC(=O)c2ccccc2O)cc1 [4-tert-Butylphenyl salicylate] | – | 168.4 | – | – | – |
| O=S(=O)(O)c1cc(O)ccc1O [Potassium 2,5-dihydroxybenzenesulfonate] | – | 131.2 | – | – | – |
| CC1CN1P(=O)(N1CC1C)N1CC1C (centres undefined) [Metepa] | 159.9 | – | 142.5 | 143.2 | – |
| O=C1NC(=O)C(c2ccccc2)(c2ccccc2)N1 [5,5-Diphenylhydantoin] | – | 160 | – | – | – |
| CC(C)(CO)COC(=O)C(C)(C)CO | 151.6 | – | – | – | – |
| Cc1cc(=O)oc2cc(O)ccc12 [4-Methylumbelliferone] | – | 133.3 | – | 132.6 | – |
| Cc1nn(-c2cc(NS(C)(=O)=O)c(Cl)cc2Cl)c(=O)n1C(F)F [Sulfentrazone] | 184 | 182.4 | – | 178.2 | – |
| CN(C)C(=O)Nc1cccc(C(F)(F)F)c1 [Fluometuron] | 155 | 146.2 | 150.5 | 150.1 | – |
| CCOc1cc(C=O)ccc1O [3-Ethoxy-4-hydroxybenzaldehyde] | – | 133.6 | – | – | – |
| C[C@@H](Oc1ccc(CNC(=O)c2cccnc2Oc2ccc3c(c2)OCO3)c(F)c1)C(=O)O | 197.1 | 202.7 | – | 196.3 | – |
| CCOP(=S)(OCC)SCS(=O)(=O)CC [Phorate sulfone] | 162.8 | – | – | – | – |
| CCc1ccccc1O [2-Ethylphenol] | – | 124.3 | – | – | – |

— the supplement of paper PMC12317010
